According to publication PMC7536268, “Increased Antimicrobial Activity of Colistin in Combination With Gamithromycin Against Pasteurella multocida in a Neutropenic Murine Lung Infection Model” (Frontiers in Microbiology, 2020):
Where a SMILES comes first, the peptide text is derived from it. Bridges are numbered along the chain shown (N, C = ends). [ ]: non-standard residue; d: D form. The star is where a group is joined. X1 = CC[C@H](C)CCCCC(=O)*; Dab = NCC[C@H](N)C(=O)O

Experiments:
[1] = tested on: Pasteurella multocida strains (D18, T5, and WJ11); assay: In vitro postantibiotic effect (PAE); assay type: cell-based; conditions: 1 h exposure
Experimental: For determination of the postantibiotic effect (PAE) of colistin, gamithromycin was tested on D18, T5, and WJ11 isolates alone and in combination with colistin, and a 1 × 10^8 CFU/mL inoculum of each isolate was used after overnight incubation in MH II broth. A 0.5-mL sample of the inoculum and 0.5 mL of colistin or gamithromycin alone at 1 × or 4 × MIC, was added to 4 mL of fresh broth and incubated in a 37°C water bath for 1 h. Meanwhile, the same operation was performed for combinations of colistin at 0.25–0.5 mg/L and gamithromycin at 0.125–0.25 mg/L. Controls without drugs were included. Each inoculum was diluted 1000-fold after incubation for 1 h, and this was the starting point for PAE testing (0 h). Aliquots of 0.1 mL were withdrawn to count the bacterial burden as described above in time-kill tests at 0, 1, 2, 4, and 6 h. PAE was calculated using the equation: PAE = T – C, where T and C represent the time taken for drug-exposed (T) and control (C) cultures to increase by 1 log10 after drugs were removed ([Mackenzie and Gould, 1993]).

[2] = tested on: Pasteurella multocida strains (D18, T5, and WJ11); assay: In vivo pharmacodynamics, neutropenic murine pneumonia model
From the text: (§1) Five-week-old specific-pathogen-free female Institute of Cancer Research (ICR) mice weighing 20–22 g obtained from the Laboratory Animal Center of the Southern Medical University (SCXK 2016-0041, Guangzhou) were used in this experiment. Animals were maintained in the Laboratory Animal Center of the South China Agricultural University (SYXK 2014-0136, Guangzhou) in accordance with the National Standards for Laboratory Animals in China (GB 14925–2010). Neutropenia was generated by intraperitoneal injection of cyclophosphamide [TCI (Shanghai) Development Co., Ltd., Shanghai, China) 4 days before the 150-mg/kg dose and 1 day before the 100-mg/kg dose prior to lung infection ([Vogelman et al., 1988]). Three strains, namely, D18, T5, and WJ11, were incubated in MH II broth. Experimental mice were anesthetized via inhalation of isoflurane and then were hung on an adjustable-angled bracket by hooking their teeth. Endotracheal intubation was performed by importing 50 μL of a logarithmic-phase bacterial suspension (10^8–10^9 CFU/mL) into the lung through the larynges rimae using a preinserted tracheal tube ([Zhou et al., 2018]). All experimental protocols were approved by the Committee on the Ethics of Animals of South China Agricultural University.

[3] = PK in plasma and lung tissue of neutropenic lung-infected mice; conditions: for AUC(0-t): Plasma AUClast; for Cmax: Plasma Cmax
From the text: as §1
Pharmacokinetics analysis of colistin (2.5 and 5 mg/kg), gamithromycin (1.5, 3, 6, 12, and 24 mg/kg) alone and in combination (2.5 mg/kg colistin, 3 mg/kg gamithromycin) was performed in 176 neutropenic lung-infected ICR mice following subcutaneous administration (SC). Plasma and lung tissue samples were withdrawn at the specified time point (four mice at each time point).
The concentration of colistin and gamithromycin in plasma and lung tissue was measured using a previously reported method ([Ma et al., 2008]; [Huang et al., 2010]; [Fu et al., 2018]). The limit of quantification for both colistin and gamithromycin was 0.01 mg/L in plasma and 0.2 μg/g in lung tissue. Recovery of colistin and gamithromycin in plasma and lung ranged between 88.2 and 113.1%. All inter- and intra-assay coefficients of variation were <10%. PK parameters in plasma and lung samples were estimated using a non-compartmental analysis method with WinNonlin software version 5.2.1 (Pharsight, St Louis, MO, United States).

[4] = tested on: Pasteurella multocida strains (D18, T5, and WJ11); assay: Mutant prevention concentration (MPC); assay type: cell-based; conditions: drug alone, agar, 72 h, 37°C
Experimental: The bacteria-containing broth was centrifuged at 3500 g for 15 min and resuspended in fresh MH II broth to obtain a solution containing 3 × 10^10 CFU/mL of P. multocida. The agar plates were produced by adding different concentrations of colistin and gamithromycin alone or in combination into the Mueller-Hinton agar medium supplemented with sterile defibrinated sheep blood. Aliquots of 100-μL inoculum were plated on four agar plates containing the same concentration of drug(s). Mutant prevention concentration (MPC) was defined as the lowest concentration that prevented the growth of bacteria after 72 h of incubation at 37°C.

[5] = tested on: Pasteurella multocida strains; assay: Checkerboard combination susceptibility testing (MIC in combination, FIC index); assay type: cell-based; conditions: colistin combined with gamithromycin, 37°C 24 h
Experimental: The susceptibility of the selected P. multocida isolates and the quality control isolate (ATCC 25922) to colistin, gamithromycin, cefquinome, enrofloxacin, tilmicosin, tylosin tartrate, and florfenicol alone was determined using the microdilution method in broth (conducted in triplicate) according to the guiding principles of the CLSI. Based on the action mechanism of each drug, the antimicrobial activity of colistin or cefquinome (drug A) in combination with gamithromycin, enrofloxacin, tilmicosin, tylosin tartrate, or florfenicol (drug B) was determined with the checkerboard method, according to the minimal inhibitory concentration (MIC) of each drug. Briefly, 50 μL of MH II broth was added to each well, and 50 μL of the indicated concentration of colistin or cefquinome was added into the first well of each line. This was followed by multiproportion dilution. Next, 50-μL samples of different concentrations of gamithromycin or the other drugs mentioned above were added to the dilution medium, and a 100 μL inoculum with a cell density of ∼1 × 10^6 colony-forming units (CFU)/mL was added to each well. The plates were then incubated at 37°C for 24 h. According to the EUCAST definitive document E.Def 1.2 ([Mccullough, 2010]), the fractional inhibitory concentration (FIC) index for combined administrations was defined as the sum of the FIC of drug A and the FIC of drug B, where FIC is the MIC of the drug combined with other drugs, divided by the MIC of the drug alone.

[6] = swine, SC 6 mg/kg; ref Wyns et al., 2014; cited from earlier work
[7] = strain D18, 1 × MIC (colistin 32 mg/L, gamithromycin 0.5 mg/L)
[8] = strain T5, 1 × MIC (colistin 32 mg/L, gamithromycin 0.5 mg/L)
[9] = strain WJ11, 1 × MIC (colistin 1 mg/L, gamithromycin 0.5 mg/L)
[10] = colistin 2.5 mg/kg SC alone, neutropenic lung-infected mice, lung tissue
[11] = colistin 5 mg/kg SC alone, neutropenic lung-infected mice, lung tissue
[12] = female, ICR, mouse, in vivo, sc, 2.5 mg/kg, colistin 2.5 mg/kg SC alone, neutropenic lung-infected mice, total plasma
[13] = female, ICR, mouse, in vivo, sc, 2.5 mg/kg, given in combination SC (2.5 mg/kg colistin, 3 mg/kg gamithromycin), total plasma
[14] = female, ICR, mouse, in vivo, sc, 5 mg/kg, colistin 5 mg/kg SC alone, neutropenic lung-infected mice, total plasma
[15] = given in combination SC (2.5 mg/kg colistin, 3 mg/kg gamithromycin), lung tissue

CC[C@H](C)CCCCC(=O)N[C@@H](CCN)C(=O)N[C@H](C(=O)N[C@@H](CCN)C(=O)N[C@H]1CCNC(=O)[C@H]([C@@H](C)O)NC(=O)[C@H](CCN)NC(=O)[C@H](CCN)NC(=O)[C@H](CC(C)C)NC(=O)[C@@H](CC(C)C)NC(=O)[C@H](CCN)NC1=O)[C@@H](C)O [Colistin] (X1-[Dab]T[Dab][Dab][Dab][dL]L[Dab][Dab]T; lactam 4-C)
PAE [1, 7]: 0.98 h | PAE ([1]; strain D18, 4 × MIC): 3.79 h | PAE [1, 8]: 0.29 h | PAE ([1]; strain T5, 4 × MIC): 2.83 h | PAE [1, 9]: 0.96 h | PAE ([1]; strain WJ11, 4 × MIC): 2.34 h | in vivo PD outcome ([2]; colistin alone 2.5 or 5 mg/kg SC every 12 h, all three isolates, 24 h): failure to inhibit growth of bacteria | Lung AUClast [3, 10]: 5.22 mg⋅h/kg | Lung Cmax [3, 10]: 3.37 mg/kg | Lung T1/2 [3, 10]: 76.8 min | Lung Tmax [3, 10]: 30 min | Plasma Tmax ([3]; colistin 2.5 mg/kg SC alone, neutropenic lung-infected mice, total plasma, non-compartmental): 30 min | Lung AUClast [3, 11]: 12.20 mg⋅h/kg | Lung Cmax [3, 11]: 5.54 mg/kg | Lung T1/2 [3, 11]: 103 min | Lung Tmax [3, 11]: 45 min | AUC(0-t) [3, 12]: 3.51 µg·h/mL | AUC(0-t) [3, 13]: 3.88 µg·h/mL | Cmax [3, 12]: 3.14 µg/mL | Cmax [3, 13]: 3.33 µg/mL | half-life ([3]; female, ICR, mouse, in vivo, sc, 2.5 mg/kg, Plasma T1/2, colistin 2.5 mg/kg SC alone, neutropenic lung-infected mice, total plasma): 40.2 min | half-life ([3]; female, ICR, mouse, in vivo, sc, 2.5 mg/kg, Plasma T1/2, given in combination SC (2.5 mg/kg colistin, 3 mg/kg gamithromycin), total plasma): 36.6 min | Tmax ([3]; female, ICR, mouse, in vivo, sc, 5 mg/kg): 45 min | AUC(0-t) [3, 14]: 10.5 µg·h/mL | Cmax [3, 14]: 6.33 µg/mL | half-life ([3]; female, ICR, mouse, in vivo, sc, 5 mg/kg, Plasma T1/2, colistin 5 mg/kg SC alone, neutropenic lung-infected mice, total plasma): 49.8 min | Lung AUClast [3, 15]: 5.10 mg⋅h/kg | Lung Cmax [3, 15]: 2.94 mg/kg | Lung T1/2 [3, 15]: 69.6 min | Lung Tmax [3, 15]: 30 min | MPC ([4]; strain D18): 128 mg/L | MPC ([4]; strain T5): 128 mg/L | MPC ([4]; strain WJ11): 64 mg/L | MIC (in combination) ([5]; strain CVCC 444): 0.125 mg/L | MIC (in combination) ([5]; strain D18): 0.25 mg/L | MIC (in combination) ([5]; strain PmP2 (pig)): 0.125 mg/L | MIC (in combination) ([5]; strain PmP17 (pig)): 0.125 mg/L | MIC (in combination) ([5]; strain T5): 0.125 mg/L | MIC (in combination) ([5]; strain WJ11): 0.125 mg/L | MIC (in combination) ([5]; strain WN71): 0.0625 mg/L | MIC (in combination) ([5]; strain WW81): 0.5 mg/L | MIC (in combination) ([5]; strain XX12): 0.125 mg/L

CCCN1C[C@H](C)[C@@H](O)[C@](C)(O)[C@@H](CC)OC(=O)[C@H](C)[C@@H](O[C@H]2C[C@@](C)(OC)[C@@H](O)[C@H](C)O2)[C@H](C)[C@@H](O[C@@H]2O[C@H](C)C[C@H](N(C)C)[C@H]2O)[C@](C)(O)C[C@H]1C [Gamithromycin]
PAE [1, 7]: 0.21 h | PAE ([1]; strain D18, 4 × MIC): 0.51 h | PAE [1, 8]: 0.54 h | PAE ([1]; strain T5, 4 × MIC): 1.83 h | PAE [1, 9]: 0.59 h | PAE ([1]; strain WJ11, 4 × MIC): 1.16 h | dose required for effective treatment ([2]; gamithromycin monotherapy every 12 h): ≥ 24 mg/kg | time of Cmax in lung tissue ([3]; mouse, in vivo): 0.25 to 1 h | Lung T1/2 ([3]; mouse, in vivo, SD): 1355 ± 111 min | Lung Tmax ([3]; mouse, in vivo, SD): 39 ± 17.4 min | Plasma T1/2 ([3]; mouse, in vivo, SD): 731.4 ± 19.8 min | Plasma Tmax ([3]; mouse, in vivo, SD): 27 ± 12.6 min | AUClast [6]: 3.48 mg⋅h/L | MPC ([4]; strain D18): 1 mg/L | MPC ([4]; strain T5): 1 mg/L | MPC ([4]; strain WJ11): 1 mg/L | MIC (in combination) ([5]; strain CVCC 444): 0.25 mg/L | MIC (in combination) ([5]; strain D18): 0.0625 mg/L | MIC (in combination) ([5]; strain PmP2 (pig)): 0.125 mg/L | MIC (in combination) ([5]; strain PmP17 (pig)): 0.0625 mg/L | MIC (in combination) ([5]; strain T5): 0.125 mg/L | MIC (in combination) ([5]; strain WJ11): 0.25 mg/L | MIC (in combination) ([5]; strain WN71): 0.25 mg/L | MIC (in combination) ([5]; strain WW81): 0.25 mg/L | MIC (in combination) ([5]; strain XX12): 0.0625 mg/L
